Measured values published in US8691993B2, “Piperidinyl naphthylacetic acids” (Hoffman-La Roche Inc., priority 2011, dated 2014).

test system: Th2 cells; experiment: DK-PGD2-Induced IL-13 Production Assay in Th2 Cells; format: cell-based; settings: inhibition of IL-13 production; human Th2 cells; 500 nM DK-PGD2; 4 hrs at 37° C.; ELISA
Description: DK-PGD2-Induced IL-13 Production Assay in Th2 Cells
Inhibition of 13,14-dihydro-15-keto Prostaglandin D2 (DK-PGD2)-induced IL-13 production in T helper type 2 (Th2) cells was applied to evaluate compound cellular potency.
Cultures of Th2 cells were established from blood of healthy human volunteers according to the following procedure. Peripheral blood mononuclear cells (PBMC) were first isolated from 50 mL of fresh blood by Ficoll-Hypaque density gradient centrifugation, followed by CD4^+ cell purification using a CD4^+ T Cell Isolation Kit II (from Miltenyi Biotec Inc.). The CD4^+ T cells were then differentiated to Th2 cells by culturing the cells in X-VIVO 15® medium (from Cambrex BioScience Walkersville Inc.) containing 10% human AB serum (serum of blood type AB from Invitrogen Corporation), 50 U/mL of recombinant human interleukin-2 (rhIL-2) (from PeproTech Inc.) and 100 ng/mL of recombinant human interleukin-4 (rhIL-4) (from PeproTech Inc.) for 7 days. The Th2 cells were isolated using a CD294 (CRTH2) MicroBead Kit (from Miltenyi Biotec Inc.) and amplified in X-VIVO 15® medium containing 10% human AB serum and 50 U/mL of rhIL-2 for 2 to 5 weeks. In general, 70% to 80% of the Th2 cells used in the assay are CRTH2-positive when analyzed by fluorescence-activated cell sorting using the BM16 antibody (as previously described) conjugated to Alexa Fluor 647.
The spontaneous production of IL-13 by Th2 cells was determined in the absence of DK-PGD2 stimulation and the value was subtracted from that in the presence of each compound for percent inhibition and IC50 calculations.
The percent inhibition of interleukin 13 (IL-13) production for a compound at various concentrations was calculated according to the following formula, [1-(IL-13 production in the presence of compound)/(IL-13 production in the presence of 0.15% DMSO)]×100. The IC50 value, defined as the concentration of a compound that is required for 50% inhibition of IL-13 production, was calculated by fitting the percent inhibition data for 7 concentrations to a sigmoidal dose-response (4 parameter logistic) model in the XLfit® software Excel add-in program [ID Business Solutions Ltd., model 205, where F(x)=(A+(B−A)/(1+((C/x)^D)))].

Compared with Cc1c(CC(=O)O)cc2ccc(F)cc2c1C1CCN(S(=O)(=O)Cc2cccc(Cl)c2)CC1 [Example 21, {4-[1-(3-Chloro-phenylmethanesulfonyl)-piperidin-4-yl]-6-fluoro-3-methyl-naphthalen-2-yl}-acetic acid], Cc1c(CC(=O)O)cc2ccc(F)cc2c1C1CCN(S(=O)(=O)Cc2ccc(Cl)cc2)CC1 [Example 22, {4-[1-(4-Chloro-phenylmethanesulfonyl)-piperidin-4-yl]-6-fluoro-3-methyl-naphthalen-2-yl}-acetic acid] is 2-fold lower in IC50: 45 nM for the first, 23 nM for the second. The second is the more potent here.

Compared with Cc1c(CC(=O)O)cc2ccc(F)cc2c1C1CCN(C(=O)Nc2c(F)cccc2F)CC1 [Example 32, {4-[1-(2,6-Difluoro-phenylcarbamoyl)-piperidin-4-yl]-6-fluoro-3-methyl-naphthalen-2-yl}-acetic acid], Cc1c(CC(=O)O)cc2ccc(F)cc2c1C1CCN(C(=O)c2cc(F)ccc2F)CC1 [Example 30, {4-[1-(2,5-Difluoro-benzoyl)-piperidin-4-yl]-6-fluoro-3-methyl-naphthalen-2-yl}-acetic acid] is 4.5-fold lower in IC50: 371 nM for the first, 83 nM for the second.

Cc1c(CC(=O)O)cc2ccc(F)cc2c1C1CCN(S(=O)(=O)Cc2ccccc2N)CC1 [Example 27, {4-[1-(2-Amino-phenylmethanesulfonyl)-piperidin-4-yl]-6-fluoro-3-methyl-naphthalen-2-yl}-acetic acid] and Cc1c(CC(=O)O)cc2ccc(F)cc2c1C1CCN(S(=O)(=O)Cc2ccccc2[N+](=O)[O-])CC1 [Example 26, {6-Fluoro-3-methyl-4-[1-(2-nitro-phenylmethanesulfonyl)-piperidin-4-yl]-naphthalen-2-yl}-acetic acid] are within 1.5-fold of each other in IC50: 27 nM for the first, 32 nM for the second.

Going from Cc1c(CC(=O)O)cc2ccc(F)cc2c1C1CCN(C(=O)Nc2ccc(Cl)cc2Cl)CC1 [Example 33, {4-[1-(2,4-Dichloro-phenylcarbamoyl)-piperidin-4-yl]-6-fluoro-3-methyl-naphthalen-2-yl}-acetic acid] to Cc1c(CC(=O)O)cc2ccc(F)cc2c1C1CCN(C(=O)c2ccc(Cl)cc2Cl)CC1 [Example 28, {4-[1-(2,4-Dichloro-benzoyl)-piperidin-4-yl]-6-fluoro-3-methyl-naphthalen-2-yl}-acetic acid], the IC50 rises from 30 nM to 60 nM (2-fold).

Going from COc1ccccc1NC(=O)N1CCC(c2c(C)c(CC(=O)O)cc3ccc(F)cc23)CC1 [Example 35, {6-Fluoro-4-[1-(2-methoxy-phenylcarbamoyl)-piperidin-4-yl]-3-methyl-naphthalen-2-yl}-acetic acid] to Cc1c(CC(=O)O)cc2ccc(F)cc2c1C1CCN(C(=O)Nc2ccccc2Cl)CC1 [Example 34, {4-[1-(2-Chloro-phenylcarbamoyl)-piperidin-4-yl]-6-fluoro-3-methyl-naphthalen-2-yl}-acetic acid], the IC50 falls from 241 nM to 59 nM (4.1-fold).

Compared with Cc1c(CC(=O)O)cc2ccc(F)cc2c1C1CCN(S(C)(=O)=O)CC1 [Example 15, [6-Fluoro-4-(1-methanesulfonyl-piperidin-4-yl)-3-methyl-naphthalen-2-yl]-acetic acid], Cc1c(CC(=O)O)cc2ccc(F)cc2c1C1CCN(S(=O)(=O)N2CCCC2)CC1 [Example 25, {6-Fluoro-3-methyl-4-[1-(pyrrolidine-1-sulfonyl)-piperidin-4-yl]-naphthalen-2-yl}-acetic acid] is 10-fold lower in IC50: 142 nM for the first, 14 nM for the second.

Going from Cc1c(CC(=O)O)cc2ccc(F)cc2c1C1CCN(S(=O)(=O)c2cccc(C(F)(F)F)c2)CC1 [Example 23] to Cc1c(CC(=O)O)cc2ccc(F)cc2c1C1CCN(C(=O)Nc2cccc(C(F)(F)F)c2)CC1 [Example 36], the IC50 rises from 266 nM to 437 nM (1.6-fold).

First: Cc1c(CC(=O)O)cc2ccc(F)cc2c1C1CCN(S(=O)(=O)Cc2ccccc2)CC1 [Example 19, [6-Fluoro-3-methyl-4-(1-phenylmethanesulfonyl-piperidin-4-yl)-naphthalen-2-yl]-acetic acid]
Second: Cc1c(CC(=O)O)cc2ccc(F)cc2c1C1CCN(C(=O)Cc2ccccc2)CC1 [Example 31, [6-Fluoro-3-methyl-4-(1-phenylacetyl-piperidin-4-yl)-naphthalen-2-yl]-acetic acid]
The IC50 of the first is 15-fold lower: 8 nM for the first, 117 nM for the second.

Going from Cc1c(CC(=O)O)cc2ccc(F)cc2c1C1CCN(S(=O)(=O)c2c(Cl)cccc2Cl)CC1 [Example 18, {4-[1-(2,6-Dichloro-benzenesulfonyl)-piperidin-4-yl]-6-fluoro-3-methyl-naphthalen-2-yl}-acetic acid] to Cc1c(CC(=O)O)cc2ccc(F)cc2c1C1CCN(S(=O)(=O)c2ccc(Cl)cc2Cl)CC1 [Example 16, {4-[1-(2,4-Dichloro-benzenesulfonyl)-piperidin-4-yl]-6-fluoro-3-methyl-naphthalen-2-yl}-acetic acid], the IC50 falls from 58 nM to 22 nM (2.6-fold). The second is the more potent here.

Going from Cc1c(CC(=O)O)cc2ccc(F)cc2c1C1CCN(C(=O)c2c(Cl)cccc2Cl)CC1 [Example 29, {4-[1-(2,6-Dichloro-benzoyl)-piperidin-4-yl]-6-fluoro-3-methyl-naphthalen-2-yl}-acetic acid] to Cc1c(CC(=O)O)cc2ccc(F)cc2c1C1CCN(S(=O)(=O)c2cc(Cl)ccc2Cl)CC1 [Example 17, {4-[1-(2,5-Dichloro-benzenesulfonyl)-piperidin-4-yl]-6-fluoro-3-methyl-naphthalen-2-yl}-acetic acid], the IC50 rises from 20 nM to 120 nM (6-fold). The first is the more potent here.

Going from COc1ccccc1S(=O)(=O)N1CCC(c2c(C)c(CC(=O)O)cc3ccc(F)cc23)CC1 [Example 20, {6-Fluoro-4-[1-(2-methoxy-benzenesulfonyl)-piperidin-4-yl]-3-methyl-naphthalen-2-yl}-acetic acid] to Cc1c(CC(=O)O)cc2ccc(F)cc2c1C1CCN(S(=O)(=O)c2ccccc2Cl)CC1 [Example 14, {4-[1-(2-Chloro-benzenesulfonyl)-piperidin-4-yl]-6-fluoro-3-methyl-naphthalen-2-yl}-acetic acid], the IC50 rises from 9 nM to 33 nM (3.7-fold).

In the case of Cc1c(CC(=O)O)cc2ccc(F)cc2c1C1CCN(S(=O)(=O)C2CCCC2)CC1 [Example 24, [4-(1-Cyclopentanesulfonyl-piperidin-4-yl)-6-fluoro-3-methyl-naphthalen-2-yl]-acetic acid], the IC50 is reported as 23 nM.
